# Experimental data published in US20250221405A1, “ROOT NODULE FORMATION-PROMOTING COMPOSITION, AND ROOT HAIR FORMATION-PROMOTING COMPOSITION” (KANEKA CORPORATION, priority 2022, published 2025).
# Tests used:
# [1] = test system: Japanese mustard spinach (Haru no Senbatsu); assay: Experimental Example 6: SF in agar medium, microscopic observation of root hair; type: in vivo; parameters: key: those with a significant root hair increase observed were evaluated as AA; those with a root hair increase observed were evaluated as BB; those with no root hair increase observed were evaluated as CC; those with an overall or partial root hair decrease observed were evaluated as DD; conditions: Table 10, eight days after seeding
# Procedure: An observation tank (a composition for promoting root hair formation) formed by adding 1% SF aqueous solution to ½ MS agar medium (0.8% agar) so as to obtain the following dilution factor was prepared in an acrylic tank. Japanese mustard spinach (Haru no Senbatsu) was seeded near the surface of the observation tank.
# After seeding, the Japanese mustard spinach was cultivated in an incubator set in a light period (6:00-18:00, temperature 26° C., illuminance 120 μmol/m^2·s) and a dark period (18:00-6:00, temperature 18° C.).
# Eight days after the seeding, the amount of root hair at a point of 1 cm from the tip of the roots was observed under a microscope (microscopic observation). In the T1 (Control), ½ MS agar medium without mixing 1% SF aqueous solution in the medium was used as the observation tank.
# As a result of the observation, compared with the T1, those with a significant root hair increase observed were evaluated as AA, those with a root hair increase observed were evaluated as BB, those with no root hair increase observed were evaluated as CC, and those with an overall or partial root hair decrease observed were evaluated as DD.
# A plurality of experiments were conducted by changing the date of seeding, the date of observation, and the type of the composition for promoting root hair formation and the like. […]
# soybeans (Fukuyutaka) = assay: Experimental Example 4: soil irrigation with biosurfactant and/or KVP, root nodule number and weight, root weight; type: in vivo, soybean; conditions: with rhizobium materials
# Procedure: For each of the following treatments, to a mixture of rhizobium materials (rhizobium and azospirillum) mixed with water at a proportion of 10 g/L, SF, SL, or RL was added in the following amount to prepare a solution comprising the rhizobium materials and SF, SL, or RL (a composition for promoting root nodule formation).
# A 9 cm poly pot was filled with sterilized fertilizer-free culture soil (Heiwa) and seeded three seeds of soybeans (Fukuyutaka) in each pot.
# After seeding, the seeds were cultivated in a greenhouse set at 28° C. during the day (14h) and 18° C. at night (10h).
# Seven days after the seeding, the soybeans in each pot were thinned to one plant, and each pot was irrigated with 4.3 ml of the composition for promoting root nodule formation (in the treatment T1, a mixture of rhizobium materials (rhizobium and azospirillum) mixed with water at a proportion of 10 g/L).
# Twenty-one days after the irrigation, the roots were washed with water so as not to remove root nodules, the culture soil was removed, and then, the root nodules formed on the roots were collected.
# After the seeding, each pot was fertilized with ½ Hoagland solution (50 mL) once a week. In addition, experiments were conducted on eight pots (eight plants) in each treatment.
# A plurality of experiments were conducted by changing the type of the composition for promoting root nodule formation and the like. Tables 4-1 and 4-2 show the date of seeding, the date of irrigating, the date of investigating the number of root nodules, the composition for promoting root nodule formation, and the investigation result of the number of root nodules. Note that the number of root nodules is indicated by a relative value with Tl taken as 100, with a numerical value in parentheses indicating the average number of root nodules actually measured (pieces/plant). In addition, fresh root nodule weight means the weight of root nodules before drying on the day of collection and is indicated by a relative value with Tl taken as 100. Dried underground part weight means the weight of roots dried for 48 hours at 80° C. and indicated by a relative value with Tl taken as 100.
# [2] = Table 4-1, single agent diluted 1000 times
# [3] = Table 4-1, single agent diluted 5000 times
# [4] = Table 4-1, single agent diluted 10000 times
substance,measurement,setting,value
surfactin Na [SF],Observation Result (root hair),[1]; agar medium with SF diluted 5000 times,AA
same,Observation Result (root hair),[1]; agar medium with SF diluted 10000 times,BB
same,"Dried Underground Part Weight, relative value with T1 taken as 100",soybeans (Fukuyutaka); [2],101
same,"Fresh Root Nodule Weight, relative value with T1 taken as 100",soybeans (Fukuyutaka); [2],124
same,"Number of Root Nodules, average number actually measured",soybeans (Fukuyutaka); [2],19.6 pieces/plant
same,"Number of Root Nodules, relative value with T1 taken as 100",soybeans (Fukuyutaka); [2],114
same,"Dried Underground Part Weight, relative value with T1 taken as 100",soybeans (Fukuyutaka); [3],103
same,"Fresh Root Nodule Weight, relative value with T1 taken as 100",soybeans (Fukuyutaka); [3],121
same,"Number of Root Nodules, average number actually measured",soybeans (Fukuyutaka); [3],19.0 pieces/plant
same,"Number of Root Nodules, relative value with T1 taken as 100",soybeans (Fukuyutaka); [3],110
same,"Dried Underground Part Weight, relative value with T1 taken as 100",soybeans (Fukuyutaka); [4],99
same,"Fresh Root Nodule Weight, relative value with T1 taken as 100",soybeans (Fukuyutaka); [4],107
same,"Number of Root Nodules, average number actually measured",soybeans (Fukuyutaka); [4],18.0 pieces/plant
same,"Number of Root Nodules, relative value with T1 taken as 100",soybeans (Fukuyutaka); [4],104
